Patent US9907797B2, “Combination therapies for overcoming resistance to mitotic agents during chemotherapy” (EMORY UNIVERSITY, priority 2014, dated 2018)
Peptide text beside a SMILES is read from it. * marks the point of attachment. Cbz = O=C(OCc1ccccc1)*

Assays:
Type in all cases: cell-based
[1] = test system: A549, EKVX, H596, H522, Hop-62, H460 and H2023; test: Cytotoxicity assays with docetaxel and ABT-888 in seven lung cancer cell lines
Method: Hypothesizing that PARP-inhibition could induce synergistic cytotoxicity in CHFR expressing lung cancer cell lines, cytotoxicity assays were performed in seven lung cancer cell lines (A549, EKVX, H596, H522, Hop-62, H460 and H2023) using docetaxel and the PARP-inhibitor ABT-888 either alone or in combination.

PARP1-CHFR interaction = target: T1, PARP1-CHFR interaction (Homo sapiens, UniProt Q96EP1); test: Glutathione affinity pull-down of GST tagged PARP1 with CHFR in HEK293 cells; settings: 10 uM, 16 hours
T1 construct: expressed in transfected cells; CHFR endogenous
T1 sequence (Q96EP1 1-664): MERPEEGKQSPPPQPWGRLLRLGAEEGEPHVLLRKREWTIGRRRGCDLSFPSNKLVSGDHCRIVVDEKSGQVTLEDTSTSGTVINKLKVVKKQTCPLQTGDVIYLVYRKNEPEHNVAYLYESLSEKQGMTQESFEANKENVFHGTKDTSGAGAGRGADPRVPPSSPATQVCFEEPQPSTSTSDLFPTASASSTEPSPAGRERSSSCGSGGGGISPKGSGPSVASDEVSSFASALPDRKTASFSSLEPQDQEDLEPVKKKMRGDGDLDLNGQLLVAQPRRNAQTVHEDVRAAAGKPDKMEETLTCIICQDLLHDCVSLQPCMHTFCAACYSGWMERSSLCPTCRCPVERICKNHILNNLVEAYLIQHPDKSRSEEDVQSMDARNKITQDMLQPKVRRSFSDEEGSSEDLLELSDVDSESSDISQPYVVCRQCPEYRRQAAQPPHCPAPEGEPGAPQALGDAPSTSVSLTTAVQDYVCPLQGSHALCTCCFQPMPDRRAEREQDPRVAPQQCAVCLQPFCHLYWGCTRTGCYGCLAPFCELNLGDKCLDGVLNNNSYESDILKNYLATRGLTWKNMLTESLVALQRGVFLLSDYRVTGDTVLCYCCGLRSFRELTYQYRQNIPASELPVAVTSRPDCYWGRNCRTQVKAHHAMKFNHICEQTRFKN
Method: In an attempt to generate possible lead compounds for the pharmacologic inhibition of the CHFR-PARP1 interaction, a high throughput computational screen of 5,256,508 chemical structures in the MCULE database of purchasable compounds using the AutoDockVina algorithm against the published crystal structure of the CHFR-PBZ domain was performed. The 10 most promising ‘hits’ based on Autodock Vina docking scores (<−9.7) were selected for further characterization. Commercially available compounds were tested for their impact on nuclear CHFR levels (FIG. 3A). Several compounds, including ‘A2’, ‘A3’, ‘A4’ and ‘A6’ decreased CHFR levels assayed by western blotting of whole cell extracts. The impact of the above referenced compounds on the PARP1/CHFR interaction were evaluated. HEK293 cells were transfected with GST tagged PARP1 and the interaction with CHFR determined in pull down assays for those 4 compounds. […] In contrast to treatment with ABT-888, ‘A3’ completely disrupted the interaction between GST-tagged PARP-1 and CHFR (FIG. 3B). […] Since it is possible that the co-immunoprecipitation between PARP-1 and CHFR after ‘A3’ treatment was negative due to the fact that CHFR was degraded, the experiment was repeated after transfection with the Ring-domain deleted ΔR-CHFR construct, which maintained both stable CHFR and PARP1 levels even after treatment with ‘A3’. […]

CHFR = test: wt-CHFR and CHFR-PBZ* protein levels in transfected Calu-6 cells
Excerpt: To determine if disruption of the CHFR-PARP1 interaction forces CHFR degradation by auto-ubiquitination and subsequent proteasomal degradation, wild-type and the CHFR-PBZ mutant were expressed in the presence and absence of the proteasome inhibitor MG-132 (FIG. 1H) or after the additional deletion of the RING domain (FIG. 1I) in Calu-6 cells.

CHFR-PARP1 interaction = test: Interaction between GST-tagged PARP1 and CHFR in synchronized cells; settings: microtubular damage induced with docetaxel, G2/M phase
Method: (§1) The functional significance of the interaction between CHFR and PARP1 in antephase checkpoint control and taxane sensitivity was evaluated. HEK293 cells were transfected with a GST-tagged PARP1, synchronized with aphidocholin, and the interaction between GST-tagged PARP1 and CHFR was analyzed at various stages of the cell cycle (FIG. 2A, 2B). […] To determine the effect on taxane sensitivity, XTT assays were performed in A549 cells stably transfected with either shRNAs specifically targeting CHFR or PARP1 or control shRNAs (scrambled or luciferase targeting respectively).

A549 cells = test: XTT assays with docetaxel in A549 cells stably transfected with shRNAs
Method: as §1

Calu-6 NSCLC cells = test: XTT assay with docetaxel in transfected Calu-6 cells; settings: docetaxel 72 hours, Calu-6 with wt-CHFR vs empty vector and CHFR-PBZ*, p<0.05
Method: The effect of Docetaxel after 72 hours was established by XTT assay.
In Hela cells, full length, but not PBZ-mutant CHFR has similar cell cycle effects. To determine the functional relevance of the PBZ domain on taxane resistance in NSCLC CHFR deficient CALU-6 cells were transfected with either with full-length CHFR (pDEST40-wt-CHFR) or PBZ mutant CHFR (pDEST40-CHFR-PBZ*).

Question: C[C@]1(c2nc3c(C(N)=O)cccc3[nH]2)CCCN1 [ABT-888] was tested. Which “cytostasis, docetaxel combined with ABT-888” value ([1]; ABT-888 20 uM) did it give?
Answer: Its value is “did not lead to enhanced cytostasis”.

Question: What about the “synergy of docetaxel and ABT-888, cytotoxicity” value ([1]; seven lung cancer cell lines, alone or in combination) of the same molecule?
Answer: The value was “Synergy was not observed in any of the cell lines”.

Question: What about the “interaction between PARP1 and CHFR” value (PARP1-CHFR interaction) of the same molecule?
Answer: The value was “nor did it disrupt the interaction between CHFR and PARP-1”.

Question: And the CHFR protein levels (CHFR; Calu-6 cells, wt-CHFR or CHFR-PBZ*)?
Answer: Its CHFR protein levels is “did not result in altered CHFR protein levels”.

Question: With CC(C)C[C@@H](C=O)NC(=O)[C@H](CC(C)C)NC(=O)[C@H](CC(C)C)NC(=O)OCc1ccccc1 [MG-132] (Cbz-Leu-Leu-Leu-aldehyde) as the molecule, how does the “CHFR-PBZ* protein levels” value (CHFR; Calu-6 cells stably transfected with CHFR-PBZ*, proteasomal inhibition) read?
Answer: The value was “increases CHFR-PBZ* protein levels”.

Question: CC(=O)O[C@@]12CO[C@@H]1C[C@H](O)[C@@]1(C)C(=O)[C@H](O)C3=C(C)[C@@H](OC(=O)[C@H](O)[C@@H](NC(=O)OC(C)(C)C)c4ccccc4)C[C@@](O)([C@@H](OC(=O)c4ccccc4)[C@H]21)C3(C)C [docetaxel] was tested. Which “interaction between GST-tagged PARP1 and CHFR” value (CHFR-PARP1 interaction) did it give?
Answer: The value was “further enhances this interaction”.

Question: And the “sensitivity to docetaxel (XTT)” value (A549 cells; CHFR-deficient A549 cells relative to scrambled control)?
Answer: The value was “increased sensitivity to docetaxel”.

Question: And the “sensitivity to docetaxel (XTT)” value (A549 cells; PARP1 deficient A549 cells relative to control shRNA)?
Answer: The value was “also showed increased sensitivity to docetaxel”.

Question: What about the “taxane resistance (XTT)” value (Calu-6 NSCLC cells) of the same molecule?
Answer: The value was “Stable transfection of wt-CHFR increases taxane resistance”.
